Patent US6727407B1, “NUCLEIC ACIDS ENCODING THE ARABIDOPSIS PROTEIN KINASE β-SUBUNIT CKB3 AND A METHOD OF ALTERING CIRCADIAN RHYTHMS AND FLOWERING IN A PLANT BY TRANFORMING WITH A NUCLEIC ACID ENCODING A PROTEIN KINASE β-SUBUNIT” (Regents of the University of California, priority 1998, dated 2004)

How the values were obtained:
recombinant CK2 = experiment: In vitro kinase assay: phosphorylation of GST-CCA1 by recombinant CK2; type: biochemical, Arabidopsis; conditions: 10 mM inhibitor, recombinant CK2, [γ-32P]ATP
Method: (§1) GST (lanes 1 and 4) or GST-CCA1 (lanes 2, 3, 5-7) were incubated with 160 μg of WCE in the absence (lanes 1, 2, 4, and 5) or presence (lane 3) of 10 mM 2,3-diphosphoglycerate (D. G.), with recombinant CK2 (rCK2) in the absence (lane 6) or presence of 10 mM 2,3-diphosphoglycerate (lane 7) together with [γ-^32P]ATP (lanes 1-3, 6, and 7) or [γ-^32P]GTP (lanes 4 and 5). The arrow indicates the position of the full-length GST-CCA1 protein.
(§2) GST-CCA1 bound to glutathione-agarose beads was resuspended in 50 μl of CK2 buffer (50 mM Tris-HCl, pH 7.5, 10 mM MgCl2, 100 mM NaCl, 1 mM DTT. 0.1 mM ATP or GTP) in the presence of 5-10 μCi of [γ-^32P]ATP or GTP. The reaction was started by adding CK2 or whole-cell extracts (WCE) and incubating samples at 30° C. for 30 min. WCE were prepared as described previously (3) except that the phosphatase inhibitor cocktail (5 mM NH4VO3, 0.2 mM ammonium molybdate, 1 mM EGTA, 50 mM NaF) was added to extraction buffer. The beads were washed with phosphate-buffered saline (PBS) containing 1% Triton X-100 and resuspended in 1X SDS-PAGE sample buffer. The phosphorylated samples were separated by 10% SDS-PAGE. ^32P-labeled bands were detected by autoradiography and quantitated with a PhosphorImager.
(§3) We next examined whether plants contain a CK2-like protein kinase activity that can phosphorylate CCA1 in vitro. […]

CK1 and CK2 = conditions: cited from earlier work
[1] = test system: CK2-like activity in Arabidopsis whole-cell extracts; experiment: In vitro kinase assay: phosphorylation of GST-CCA1 by Arabidopsis whole-cell extracts; type: biochemical; conditions: 10 mM inhibitor, 160 μg WCE, [γ-32P]ATP, 30° C. 30 min
Method: as §1, §2, §3

[2] = test system: major DNA-protein complex containing CCA1; experiment: EMSA: formation of the DNA-protein complex containing CCA1 in plant whole-cell extracts (A2 fragment of Lhcb1*3); type: biochemical, Arabidopsis; conditions: WCE preincubated 45 min at 30° C.
Method: WCE were incubated in the absence (lane 1) or presence (lane 2) of λ protein phosphatase (200 units added to 200 μl) for 30 min at 30° C. […] WCE from wild type (WT) and a CCA1-ox line (CCA1-ox) (7) grown in 12:12 photoperiods were used in the EMSA. […] WCE were incubated with the indicated inhibitor for 45 min at 30° C. Lane 1, no inhibitors; lane 2, 5 mM 2,3-diphosphoglycerate (D.G.); lane 3, 100 μM quercetin. Arrows indicate the position of the major DNA-protein complex containing CCA1.
CCA1 was incubated with 0.1 ng of end-labeled A2 fragment of the Arabidopsis Lhcb 1*3 gene (56) in the presence of 0.5 μg of poly(dI-dC) at 25° C. for 15 min. WCE were incubated in preincubation buffer (50 mM Tris-HCl, pH 7.5, 2 mM MnCl2, 5 mM DTT, 0.1 mM EDTA, 0.01% Brij 35) at 30° C. for 45 min, then incubated with the A2 probe in the presence of 1 μg of poly(dI-dC). The EMSA buffer and electrophoresis conditions have been described (56). DNA-protein complexes were detected by autoradiography.
The A2 fragment used as a probe includes known binding sites for G-box and CAAT binding proteins (56). […] Further evidence that the marked complex contains CCA1 includes the observations (data not shown) that this complex is absent in extracts prepared from CCA1-null mutant plants and that addition of anti-CCA1 antibodies inhibits its formation. […]

## 2,3-diphosphoglycerate
Recombinant CK2
  reduction of phosphorylation of CCA1: 77%
CK1 and CK2
  kinase inhibition specificity: inhibits both CK1 and CK2
[1]
  reduction of incorporation of ATP into GST-CCA1: 63%
[2]; 5 mM inhibitor
  formation of the DNA-protein complex containing CCA1: abolished

## O=c1c(O)c(-c2ccc(O)c(O)c2)oc2cc(O)cc(O)c12 [quercetin]
CK1 and CK2
  kinase inhibition specificity: specific to CK2
[2]; 100 μM inhibitor
  formation of the DNA-protein complex containing CCA1: abolished
